Source: patent US11236129B2, “IL-17A binding peptides and medical uses thereof” (Dompe' Farmaceutici S.P.A., priority 2018, dated 2022)
Like-named read-outs stand apart in the source and are kept apart here. Residues, ends and D or L forms follow the SMILES beside them.

Experiments:
[1] = biological target: IL-17RA/IL17RC dimerization induced by IL-17A (Homo sapiens, UniProt Q16552); experiment: IL-17RA/IL17RC dimerization assay in response to IL-17A (PathHunter Cytokine Receptor Assay); format: cell-based; conditions: IL-17A at EC80; read-out: IC50 in IL-17RA/IL7RC dimerization assay
Summary of the method: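 PathHunter cells with IL-17RA and IL-17RC tagged for β-galactosidase complementation were preincubated 60 min with peptide (1% vehicle). IL-17A was then added at EC80 for 6–16 h at 37 °C, and chemiluminescence was read. Inhibition is relative to the EC80 and vehicle controls.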

[2] = Isoelectric point, log D and log P (SiriusT3); format: physicochemical; conditions: for IP (isoelectric point): 25±1° C., 0.15 M KCl; for Log D (7.4): pH 7.4
Procedure: The main physicochemical properties (Isoelectric point (IP), log D (7.4) and log P) of the peptides of Table 8 below were determined by using the SiriusT3 apparatus (Sirius Analytical Instruments Ltd., East Sussex, UK) equipped with an Ag/AgCl double junction reference pH electrode, a Sirius D-PAS spectrometer and a turbidity sensing device. […] An overhead stirrer was used and a temperature probe (Peltier controller) monitored the temperature during the course of the titration. The titration experiments were conducted in 0.15 M KCl Ionic Strength Adjusted solution (ISA water) under a nitrogen atmosphere at a temperature of 25±1° C. All tests were performed using standardized 0.5 M KOH and 0.5 M HCl as titration reagents, for the partition coefficient tests a saturated Octanol in ISA water (5% of ISA water) was used as partition solvent. The pKas were determined by potentiometric method by pH-metric titration. The powder (around 0.5 mg) was dissolved in 1.5 ml of ISA water and the titration was performed in triplicate in the pH range 2.0−12.0.

[3] = format: physicochemical; conditions: pH 7.8
Procedure: Each lyophilized peptide was weighed in an amber vial. A calculated volume of phosphate buffered solution at pH 7.8 was added in order to directly obtain 10 mM Stock Solutions. The recovered suspensions were stirred for 30 minutes by orbital shaker incubator at 37° C. Subsequent dilutions were performed to obtain the more diluted stock solutions for the less soluble compounds.
In order to evaluate the stability and the solubility, all the stock solutions were stored at 25° C. The title was evaluated by UHPLC-MS analysis in comparison with the standard solutions, at 3 time points: T0, 3 days, 1 week.
The chromatographic profile was evaluated for the quantitative assay while the MS spectra were detected as support in the stability studies.
Each peptide was weighed and directly diluted at 100 μM with the phosphate buffer at pH 7.8. The solutions were stirred for 5 minutes by vortex and heated at 37° C. for 20 minutes. The obtained standard solution was stored at 25° C. in the dark under controlled temperature.
A portion of the stock solutions was collected in an amber vial and diluted to 100 μM by phosphate buffer at pH 7.8 (dilution factor, 1:100).
Reversed-phase UHPLC was performed operating at a flow rate of 0.3 ml/min with a Luna Omega Polar C18 column ([…] 1.6 μm, 2.1×100 mm). Solvent A was 0.5% Formic Acid in water and solvent B was 0.5% Formic Acid in acetonitrile. First, samples were loaded onto the column and washed isocratically at 10% B for 3 min. Then, a gradient of 10-95% B was run over 22 min, held at 95% for 2 min, and then decreased to 10% over 1 min and held, for the pressure stabilization, for 5 min. UV Absorption was monitored by DAD (220-400 nm). ESI-MS ion trap was used for the monitoring of TIC.

[4] = octanol/ISA water, read-out: logP
[5] = pH 7.4, pH 7.4, octanol/ISA water, read-out: Log D (7.4)

Chain of IL-17RA/IL17RC dimerization induced by IL-17A (Q16552 24-155): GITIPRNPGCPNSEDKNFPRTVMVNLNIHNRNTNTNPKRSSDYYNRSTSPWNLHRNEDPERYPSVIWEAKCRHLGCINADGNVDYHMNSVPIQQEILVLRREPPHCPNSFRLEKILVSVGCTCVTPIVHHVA

| SMILES | IC50 [1] | IP (isoelectric point) [2] | logP [2, 4] | logD [2, 5] | solubility [3] | logP ([2]; logP) | logD ([2]; pH 7.4, Log D (7.4)) | logP [2] | Log D (7.4) [2] |
| --- | --- | --- | --- | --- | --- | --- | --- | --- | --- |
| CC[C@H](C)[C@H](NC(C)=O)C(=O)N[C@@H](CCSC)C(=O)N[C@H](C(=O)N[C@H](C(=O)N[C@H](C(=O)N1CCC[C@H]1C(=O)N[C@@H](C)C(=O)N[C@@H](CC(=O)O)C(=O)N[C@@H](CC(C)C)C(=O)N[C@@H](Cc1c[nH]c2ccccc12)C(=O)N[C@@H](CC(=O)O)C(=O)N[C@@H](Cc1c[nH]c2ccccc12)C(=O)N[C@H](C(=O)N[C@@H](CC(N)=O)C(=O)N[C@@H](CCCCN)C(N)=O)[C@@H](C)CC)[C@@H](C)CC)[C@@H](C)O)C(C)C [SEQ ID NO: 3] (Ac-IMVTIPADLWDWINK-NH2) | < 400 nM | 3.90 | 1.33 | -1.87 | ≥ 0.01 mM |  |  |  |  |
| CC[C@H](C)[C@H](NC(=O)[C@H](Cc1c[nH]c2ccccc12)NC(=O)[C@H](CC(=O)O)NC(=O)[C@H](Cc1c[nH]c2ccccc12)NC(=O)[C@H](CC(C)C)NC(=O)[C@H](CC(=O)O)NC(=O)[C@H](C)NC(=O)[C@@H]1CCCN1C(=O)[C@@H](NC(=O)[C@@H](NC(=O)[C@@H](NC(=O)[C@H](CCSC)NC(=O)[C@@H](NC(C)=O)C(C)C)C(C)C)[C@@H](C)O)[C@@H](C)CC)C(=O)N[C@@H](CC(N)=O)C(=O)N[C@@H](CCCCN)C(N)=O [SEQ ID NO: 4] (Ac-VMVTIPADLWDWINK-NH2) | < 100 nM | 3.90 | 1.88 | -1.32 | ≥ 0.02 mM |  |  |  |  |
| CC[C@H](C)[C@H](NC(C)=O)C(=O)N[C@@H](Cc1c[nH]cn1)C(=O)N[C@H](C(=O)N[C@H](C(=O)N[C@H](C(=O)N1CCC[C@H]1C(=O)N[C@@H](C)C(=O)N[C@@H](CCC(=O)O)C(=O)N[C@@H](CC(C)C)C(=O)N[C@@H](Cc1c[nH]c2ccccc12)C(=O)N[C@@H](CC(=O)O)C(=O)N[C@@H](Cc1c[nH]c2ccccc12)C(=O)N[C@H](C(=O)N[C@@H](CC(N)=O)C(=O)N[C@@H](CCCCN)C(N)=O)[C@@H](C)CC)[C@@H](C)CC)[C@@H](C)O)C(C)C [SEQ ID NO: 5] (Ac-IHVTIPAELWDWINK-NH2) | < 100 nM | 5.19 | -0.51 | -1.26 | ≥ 1 mM |  |  |  |  |
| CC[C@H](C)[C@H](NC(C)=O)C(=O)N[C@@H](Cc1c[nH]cn1)C(=O)N[C@H](C(=O)N[C@H](C(=O)N[C@H](C(=O)N1CCC[C@H]1C(=O)N[C@@H](C)C(=O)N[C@@H](CC(=O)O)C(=O)N[C@@H](CC(C)C)C(=O)N[C@@H](Cc1ccc(O)cc1)C(=O)N[C@@H](CC(=O)O)C(=O)N[C@@H](Cc1c[nH]c2ccccc12)C(=O)N[C@H](C(=O)N[C@@H](CC(N)=O)C(=O)N[C@@H](CCCCN)C(N)=O)[C@@H](C)CC)[C@@H](C)CC)[C@@H](C)O)C(C)C [SEQ ID NO: 6] (Ac-IHVTIPADLYDWINK-NH2) | < 400 nM | 5.14 |  |  | > 10 mM | -0.37 | -3.65 |  |  |
| CC[C@H](C)[C@H](NC(C)=O)C(=O)N[C@@H](Cc1c[nH]cn1)C(=O)N[C@H](C(=O)N[C@H](C(=O)N[C@H](C(=O)N1CCC[C@H]1C(=O)N[C@@H](C)C(=O)N[C@@H](CC(=O)O)C(=O)N[C@@H](CC(C)C)C(=O)N[C@@H](Cc1ccc(O)cc1)C(=O)N[C@@H](CCC(=O)O)C(=O)N[C@@H](Cc1c[nH]c2ccccc12)C(=O)N[C@H](C(=O)N[C@@H](CC(N)=O)C(=O)N[C@@H](CCCCN)C(N)=O)[C@@H](C)CC)[C@@H](C)CC)[C@@H](C)O)C(C)C [SEQ ID NO: 7] (Ac-IHVTIPADLYEWINK-NH2) |  | 5.19 |  |  | > 10 mM |  |  | −0.86 | −1.41 |
| CC[C@H](C)[C@H](NC(C)=O)C(=O)N[C@@H](Cc1c[nH]cn1)C(=O)N[C@H](C(=O)N[C@H](C(=O)N[C@H](C(=O)N1CCC[C@H]1C(=O)N[C@@H](C)C(=O)N[C@@H](CC(=O)O)C(=O)N[C@@H](CC(C)C)C(=O)N[C@@H](Cc1c[nH]c2ccccc12)C(=O)N[C@@H](CC(=O)O)C(=O)N[C@@H](Cc1c[nH]c2ccccc12)C(=O)N[C@H](C(=O)N[C@@H](CC(N)=O)C(=O)N[C@@H](CCCCN)C(N)=O)C(C)C)[C@@H](C)CC)[C@@H](C)O)C(C)C [SEQ ID NO: 8] (Ac-IHVTIPADLWDWVNK-NH2) | < 200 nM | 5.14 |  |  | > 10 mM | -5.12 | -4.06 |  |  |
| CC[C@H](C)[C@H](NC(C)=O)C(=O)N[C@@H](Cc1c[nH]cn1)C(=O)N[C@H](C(=O)N[C@H](C(=O)N[C@H](C(=O)N1CCC[C@H]1C(=O)N[C@@H](C)C(=O)N[C@@H](CC(=O)O)C(=O)N[C@@H](CC(C)C)C(=O)N[C@@H](Cc1c[nH]c2ccccc12)C(=O)N[C@@H](CC(=O)O)C(=O)N[C@@H](Cc1c[nH]c2ccccc12)C(=O)N[C@H](C(=O)N[C@@H](CCCNC(=N)N)C(=O)N[C@@H](CCCCN)C(N)=O)[C@@H](C)CC)[C@@H](C)CC)[C@@H](C)O)C(C)C [SEQ ID NO: 9] (Ac-IHVTIPADLWDWIRK-NH2) | < 300 nM | 8.28 |  |  | > 10 mM | -0.53 | -1.08 |  |  |
| CC[C@H](C)[C@H](NC(C)=O)C(=O)N[C@@H](Cc1c[nH]cn1)C(=O)N[C@H](C(=O)N[C@H](C(=O)N[C@H](C(=O)N1CCC[C@H]1C(=O)N[C@@H](C)C(=O)N[C@@H](CC(=O)O)C(=O)N[C@@H](CC(C)C)C(=O)N[C@@H](Cc1c[nH]c2ccccc12)C(=O)N[C@@H](CC(=O)O)C(=O)N[C@@H](Cc1c[nH]c2ccccc12)C(=O)N[C@H](C(=O)N[C@@H](CC(N)=O)C(=O)N[C@@H](CCCNC(=N)N)C(N)=O)[C@@H](C)CC)[C@@H](C)CC)[C@@H](C)O)C(C)C [SEQ ID NO: 10] (Ac-IHVTIPADLWDWINR-NH2) | < 400 nM | 5.14 |  |  | > 10 mM | 0.09 | -3.66 |  |  |
| CC[C@H](C)[C@H](NC(C)=O)C(=O)N[C@@H](Cc1c[nH]cn1)C(=O)N[C@H](C(=O)N[C@H](C(=O)N[C@H](C(=O)N1CCC[C@H]1C(=O)N[C@@H](C)C(=O)N[C@@H](CC(=O)O)C(=O)N[C@@H](CC(C)C)C(=O)N[C@@H](Cc1c[nH]c2ccccc12)C(=O)N[C@@H](CC(=O)O)C(=O)N[C@@H](Cc1c[nH]c2ccccc12)C(=O)N[C@H](C(=O)N[C@@H](CC(N)=O)C(=O)N[C@@H](CCC(=O)O)C(N)=O)[C@@H](C)CC)[C@@H](C)CC)[C@@H](C)O)C(C)C [SEQ ID NO: 12, IHVTIPADLWDWINE] (Ac-IHVTIPADLWDWINE-NH2) | < 200 nM | 3.66 |  |  | ≥ 0.01 mM | 1.31 | -5.24 |  |  |
| CC[C@H](C)[C@H](NC(C)=O)C(=O)N[C@@H](Cc1c[nH]cn1)C(=O)N[C@H](C(=O)N[C@H](C(=O)N[C@H](C(=O)N1CCC[C@H]1C(=O)N[C@@H](C)C(=O)N[C@@H](CC(=O)O)C(=O)N[C@@H](CC(C)C)C(=O)N[C@@H](Cc1ccc(O)cc1)C(=O)N[C@@H](CCC(=O)O)C(=O)N[C@@H](Cc1c[nH]c2ccccc12)C(=O)N[C@H](C(=O)N[C@@H](CC(N)=O)C(=O)N[C@@H](CCCCN)C(N)=O)[C@@H](C)CC)[C@@H](C)CC)[C@@H](C)O)C(C)C [SEQ ID NO: 13] (Ac-IHVTIPADLYEWINK-NH2) |  | 6.06 |  |  | >10 mM |  |  | −0.49 | 1.15 |
| CC[C@H](C)[C@H](NC(=O)[C@H](Cc1c[nH]c2ccccc12)NC(=O)[C@H](CCC(=O)O)NC(=O)[C@H](Cc1ccc(O)cc1)NC(=O)[C@H](CC(C)C)NC(=O)[C@H](CC(=O)O)NC(=O)[C@H](C)NC(=O)[C@@H]1CCCN1C(=O)[C@@H](NC(=O)[C@@H](NC(=O)[C@@H](NC(=O)[C@H](CCSC)NC(=O)[C@@H](NC(=O)CNC(=O)[C@H](C)NC(=O)CNC(=O)[C@@H]1CCCN1C(=O)[C@@H](NC(=O)CNC(=O)[C@H](C)NC(=O)CNC(=O)[C@@H]1CCCN1C(=O)[C@@H](NC(C)=O)C(C)C)C(C)C)C(C)C)C(C)C)[C@@H](C)O)[C@@H](C)CC)C(=O)N[C@@H](CCC(=O)O)C(=O)N[C@@H](CCC(=O)O)C(N)=O [SEQ ID NO: 38] |  | 5.14 | -5.88 | -3.46 | > 10 mM |  |  |  |  |
